The source of these data is patent publication US20080299108A1, “Peptides for Diagnostic and Therapeutic Methods for Celiac Sprue” (priority 2005, published 2008).

In series [1] the test system is rat brush border membrane (BBM) protein. The experiment in a line: Rat brush border membrane (BBM) digestion of gliadin peptides, LC-MS. The series is classed as in vitro ADME. The protocol: To dissect this complex process, liquid chromatography coupled mass spectroscopy analysis (LC-MS-MS) was utilized to investigate the pathways and associated kinetics of hydrolysis of immunodominant gliadin peptides treated with rat BBM preparations. Because the rodent is an excellent small animal model for human intestinal structure and function, rat BBM was chosen as a suitable model system for these studies.
BBM fractions were prepared from rat small intestinal mucosa as described by Ahnen et al. (1982) J. Biol. Chem. 257, 12129-35. […] No proline aminopeptidase (EC 3.4.11.5) or prolyl endopeptidase activity (PEP, EC 3.4.21.26) activity was detectable (<5 μU/μg). Alkaline phosphatase and sucrase were used as control BBM enzymes with activities of 66 μU/μg and 350 μU/μg, respectively.
BBM fractions were partially purified from the small intestinal mucosa of adult female rats maintained on an ad libitum diet of wheat-based standard rodent chow. Total protein content was determined by a modified method of Lowry with BSA as a standard. Alkaline phosphatase activity was determined with nitrophenyl phosphate. Sucrase activity was measured using a coupled glucose assay.
Proteolysis with the BBM preparation was investigated using the peptide (SEQ ID NO:1) (SEQ ID NO:1) […], a product of chymotryptic digestion of α-9 gliadin (Arentz-Hansen et al. (2000) J. Exp. Med. 191, 603-12). […] It was subjected to BBM digestion, followed by LC-MS-MS analysis. A standard 50 μl digestion mixture contained 100 μM of synthetic peptide, 10 μM tryptophan and Cbz-tryptophan as internal standards, and resuspended BBM preparations with a final protein content of 27 ng/μl and exogenous proteins, as indicated, in phosphate buffered saline. After incubation at 37° C. for the indicated time, the enzymes were inactivated by heating to 95° C. for 3 minutes. The reaction mixtures were analyzed by LC-MS (SpectraSystem, ThermoFinnigan) using a C18 reversed phase column (Vydac 218TP5215, 2.1×150 mm) with water:acetonitrile:formic acid (0.1%):trifluoroacetic acid (0.025%) as the mobile phase (flow: 0.2 ml/min) and a gradient of 10% acetonitrile for 3 minutes, 10-20% for 3 minutes, 20-25% for 21 minutes followed by a 95% wash. Peptide fragments in the mass range of m/z=300-2000 were detected by electrospray ionization mass spectroscopy using a LCQ ion trap, and their identities were confirmed by MSMS fragmentation patterns.

Series [2] relates to rat jejunum. The series can be described thus: In vivo intestinal perfusion in intact adult rats. The following applies: 15-20 cm segment of jejunum, residence time 20 min.
Series [3] has as its target T1, tissue transglutaminase (tTGase) (Homo sapiens, UniProt P21980).
T1 sequence (P21980 1-687): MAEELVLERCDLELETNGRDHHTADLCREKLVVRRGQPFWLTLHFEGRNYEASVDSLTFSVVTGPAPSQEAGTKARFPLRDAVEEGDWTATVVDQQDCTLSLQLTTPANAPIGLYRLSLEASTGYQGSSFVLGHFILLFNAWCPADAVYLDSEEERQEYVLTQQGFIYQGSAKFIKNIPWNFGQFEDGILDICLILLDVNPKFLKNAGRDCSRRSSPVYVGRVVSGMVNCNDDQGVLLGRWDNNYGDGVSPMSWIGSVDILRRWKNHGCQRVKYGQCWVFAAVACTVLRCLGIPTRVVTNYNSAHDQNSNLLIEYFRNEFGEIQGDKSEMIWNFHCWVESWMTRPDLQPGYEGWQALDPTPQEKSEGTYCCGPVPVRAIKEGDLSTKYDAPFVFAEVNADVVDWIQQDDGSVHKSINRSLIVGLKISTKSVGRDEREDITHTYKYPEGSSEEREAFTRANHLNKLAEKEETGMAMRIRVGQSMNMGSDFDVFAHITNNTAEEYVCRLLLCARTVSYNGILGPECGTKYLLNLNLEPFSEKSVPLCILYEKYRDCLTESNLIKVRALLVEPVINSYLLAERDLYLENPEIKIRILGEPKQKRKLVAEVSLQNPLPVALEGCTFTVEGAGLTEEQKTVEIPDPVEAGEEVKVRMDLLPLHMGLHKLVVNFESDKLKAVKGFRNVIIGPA
The following applies: cited from earlier work.

Series [4] deals with pancreatic proteases (elastase, trypsin, chymotrypsin). The series is classed as in vitro ADME. From the text: Because BBM exopeptidases are restricted to N- or C-terminal processing, it was investigated if generation of additional free peptide ends by pancreatic enzymes would accelerate digestion.

With QLQPFPQPQLPY, in series [1] (27 ng/μl rat BBM protein, 100 μM peptide, 37° C.), the “apparent half time of disappearance of the parent peptide (t1/2)” value turned out to be 35 min. In addition, the “digestion in the presence of exogenous DPP IV” value in series [1] (BBM plus 6-fold excess activity of exogenous fungal DPP IV) was “complete digestion was observed within four hours”. In addition, in series [2], the “fraction of peptide proteolyzed in the perfusion experiment” value is more than 90%.
As for PQPQLPYPQPQLPY, the “specificity of tTGase relative to its target peptide sequence in fibrinogen” value in series [3] is 5 fold. The “proteolysis with trypsin or chymotrypsin” value in series [4] is recorded as “No proteolysis was detected”. In series [4] (elastase at a high (non-physiological) concentration of 100 ng/μl), the hydrolysis by elastase result is “capable of hydrolyzing”.
